Source: the NIST ThermoML archive (doi:10.1016/j.jct.2018.04.019)
Values joined by “and” are separate entries in the source; they are usually repeats but may differ in a detail not shown here. Equal values may be shown once.

Conditions: Liquid; for speed of sound: Frequency=5 MHz, Pulse-echo method; for mass density: Vibrating tube method

CCCCCCCCC [nonane]
Conditions | mass density | speed of sound
373.14 K, 360090 kPa | – | 2160.1 m/s
373.14 K, 389860 kPa | – | 2212.9 m/s
373.15 K, 1010 kPa | 654.52 kg/m3 | –
373.15 K, 5050 kPa | 659.99 kg/m3 | –
373.15 K, 10030 kPa | 666.13 kg/m3 | –
373.15 K, 15070 kPa | 671.78 kg/m3 | –
373.15 K, 20030 kPa | 677.04 kg/m3 | –
373.15 K, 25060 kPa | 681.94 kg/m3 | –
373.15 K, 30040 kPa | 686.51 kg/m3 | –
373.15 K, 35060 kPa | 690.83 kg/m3 | –
373.15 K, 40020 kPa | 694.95 kg/m3 | –
373.15 K, 45070 kPa | 698.87 kg/m3 | –
373.15 K, 50070 kPa | 702.65 kg/m3 | –
373.15 K, 55060 kPa | 706.23 kg/m3 | –
373.15 K, 60040 kPa | 709.66 kg/m3 | –
373.15 K, 65030 kPa | 712.95 kg/m3 | –
398.14 K, 1100 kPa | – | 835.44 m/s and 835.46 m/s
398.14 K, 30140 kPa | – | 1079.8 m/s
398.14 K, 60240 kPa | – | 1254.1 m/s
398.14 K, 90220 kPa | – | 1391.9 m/s
398.14 K, 120200 kPa | – | 1508.5 m/s
398.14 K, 150150 kPa | – | 1610.2 m/s
398.14 K, 180170 kPa | – | 1701.7 m/s
398.14 K, 210020 kPa | – | 1784.3 m/s
398.14 K, 240150 kPa | – | 1861.3 m/s
398.14 K, 270210 kPa | – | 1933.1 m/s
398.14 K, 299860 kPa | – | 1999.6 m/s
398.14 K, 330010 kPa | – | 2063.7 m/s
398.14 K, 360010 kPa | – | 2124 m/s
398.14 K, 389950 kPa | – | 2182.2 m/s
398.15 K, 1020 kPa | 633.06 kg/m3 | –
398.15 K, 5020 kPa | 639.53 kg/m3 | –
398.15 K, 5030 kPa | 639.58 kg/m3 | –
398.15 K, 10050 kPa | 646.89 kg/m3 | –
398.15 K, 15070 kPa | 653.53 kg/m3 | –
398.15 K, 20020 kPa | 659.49 kg/m3 | –
398.15 K, 25030 kPa | 665.05 kg/m3 | –
398.15 K, 30050 kPa | 670.22 kg/m3 | –
398.15 K, 35050 kPa | 675.1 kg/m3 | –
398.15 K, 40020 kPa | 679.63 kg/m3 | –
398.15 K, 45070 kPa | 683.97 kg/m3 | –
398.15 K, 50020 kPa | 688.07 kg/m3 | –
398.15 K, 55040 kPa | 692.01 kg/m3 | –
398.15 K, 60030 kPa | 695.72 kg/m3 | –
398.15 K, 65040 kPa | 699.37 kg/m3 | –
423.14 K, 1110 kPa | – | 747.67 m/s
423.14 K, 1120 kPa | – | 747.72 m/s
423.14 K, 29690 kPa | – | 1013.6 m/s
423.14 K, 60210 kPa | – | 1199.1 m/s
423.14 K, 90050 kPa | – | 1341 m/s
423.14 K, 120570 kPa | – | 1462.7 m/s
423.14 K, 150110 kPa | – | 1565.4 m/s
423.14 K, 180160 kPa | – | 1658.8 m/s
423.14 K, 210180 kPa | – | 1744 m/s
423.14 K, 239990 kPa | – | 1822.3 m/s
423.14 K, 270120 kPa | – | 1895.7 m/s
423.14 K, 299980 kPa | – | 1964.4 m/s
423.14 K, 330040 kPa | – | 2029.4 m/s
423.14 K, 360020 kPa | – | 2089.7 m/s
423.14 K, 389720 kPa | – | 2146.1 m/s
423.15 K, 1020 kPa | 610.45 kg/m3 | –
423.15 K, 5030 kPa | 618.47 kg/m3 and 618.42 kg/m3 | –
423.15 K, 10030 kPa | 627.15 kg/m3 | –
423.15 K, 15030 kPa | 634.86 kg/m3 | –
423.15 K, 20040 kPa | 641.8 kg/m3 | –
423.15 K, 25040 kPa | 648.1 kg/m3 | –
423.15 K, 30020 kPa | 653.92 kg/m3 | –
423.15 K, 35050 kPa | 659.35 kg/m3 | –
423.15 K, 40020 kPa | 664.4 kg/m3 | –
423.15 K, 45020 kPa | 669.15 kg/m3 | –
423.15 K, 50040 kPa | 673.7 kg/m3 | –
423.15 K, 55020 kPa | 677.97 kg/m3 | –
423.15 K, 60030 kPa | 682.03 kg/m3 | –
423.15 K, 65040 kPa | 685.95 kg/m3 | –
448.15 K, 1000 kPa | 586.37 kg/m3 | –
448.15 K, 1040 kPa | – | 660.9 m/s
448.15 K, 5020 kPa | 596.41 kg/m3 and 596.46 kg/m3 | –
448.15 K, 10040 kPa | 607.05 kg/m3 | –
448.15 K, 15010 kPa | 616.06 kg/m3 | –
448.15 K, 20010 kPa | 624 kg/m3 | –
448.15 K, 25040 kPa | 631.27 kg/m3 | –
448.15 K, 30030 kPa | 637.78 kg/m3 | –
448.15 K, 30440 kPa | – | 960.29 m/s
448.15 K, 35030 kPa | 643.8 kg/m3 | –
448.15 K, 40010 kPa | 649.38 kg/m3 | –
448.15 K, 45050 kPa | 654.67 kg/m3 | –
448.15 K, 50020 kPa | 659.58 kg/m3 | –
448.15 K, 55040 kPa | 664.24 kg/m3 | –
448.15 K, 60030 kPa | 668.62 kg/m3 | –
448.15 K, 60490 kPa | – | 1150.5 m/s
448.15 K, 65020 kPa | 672.85 kg/m3 | –
448.15 K, 90220 kPa | – | 1296 m/s
448.15 K, 120320 kPa | – | 1418.8 m/s
448.15 K, 150280 kPa | – | 1525 m/s
448.15 K, 180150 kPa | – | 1619.4 m/s
448.15 K, 209900 kPa | – | 1704.9 m/s
448.15 K, 239920 kPa | – | 1784.3 m/s
448.15 K, 270080 kPa | – | 1858.4 m/s
448.15 K, 299830 kPa | – | 1929.8 m/s
448.15 K, 330050 kPa | – | 1995.9 m/s
448.15 K, 359980 kPa | – | 2059.2 m/s
448.15 K, 390310 kPa | – | 2115.1 m/s
473.15 K, 1010 kPa | – | 574.55 m/s
473.15 K, 5010 kPa | 573.14 kg/m3 | –
473.15 K, 10040 kPa | 586.15 kg/m3 | –
473.15 K, 15040 kPa | 596.86 kg/m3 | –
473.15 K, 20020 kPa | 606.05 kg/m3 | –
473.15 K, 25050 kPa | 614.28 kg/m3 | –
473.15 K, 30020 kPa | 621.6 kg/m3 | –
473.15 K, 30430 kPa | – | 906.04 m/s
473.15 K, 35030 kPa | 628.3 kg/m3 | –
473.15 K, 40050 kPa | 634.51 kg/m3 | –
473.15 K, 45050 kPa | 640.25 kg/m3 | –
473.15 K, 50040 kPa | 645.6 kg/m3 | –
473.15 K, 55020 kPa | 650.62 kg/m3 | –
473.15 K, 60010 kPa | 655.39 kg/m3 | –
473.15 K, 60390 kPa | – | 1104.6 m/s
473.15 K, 65010 kPa | 659.92 kg/m3 | –
473.15 K, 90200 kPa | – | 1255.4 m/s
473.15 K, 120100 kPa | – | 1381 m/s
473.15 K, 150230 kPa | – | 1490.6 m/s
473.15 K, 180260 kPa | – | 1587.6 m/s
473.15 K, 210230 kPa | – | 1675.8 m/s
473.15 K, 240070 kPa | – | 1755.4 m/s
473.15 K, 270130 kPa | – | 1830.8 m/s
473.15 K, 300080 kPa | – | 1901.9 m/s
473.15 K, 330030 kPa | – | 1964.8 m/s
473.15 K, 360070 kPa | – | 2026.3 m/s
473.15 K, 390060 kPa | – | 2084 m/s
